# Measured values taken from US10881679B2, “Application of a phillyrin/phillygeninin composition in preparing a medicine or health care product for alleviating or/and treating viral diseases, and medicine or health care product for treating viral diseases” (priority 2014, dated 2021).
# Marks after values point to notes of the source that are not given here.
# Tests used:
# [1] = test system: rat paw swelling induced by carrageenin; test: Rat paw swelling induced by carrageenin; assay type: in vivo, Wistar rats; settings: 100 mg/kg
# Procedure: Each group has 10 rats. Rats in each group were all administered by […] through the sublingual vein. Normal volume of the right hind paw of each rat in each group was measured in capillary magnification measurement method. In order to avoid errors, the measurement should be carried out in a fixed position and operated by the same person before and after administration. A mean of the two measurement values was taken as the normal volume of the right hind paw of a rat before administration. […] The difference between the groups was compared by inter-group t test processing through the difference percentage (swelling ratio) of the paw volume before and after the induced rat inflammation. [formula] Results
# [2] = test system: rabbit fever induced by typhoid and paratyphoid vaccine; test: Rabbit fever induced by typhoid and paratyphoid vaccine; assay type: in vivo, Japanese big-ear white rabbits; settings: 50 mg/kg i.g.
# Procedure: Male Japanese big-ear white rabbits with a weight 1.5˜2.0 kg were used. Before the test, WSC-411P portable digital thermometer was used to measure the normal rectal temperature twice (with certain interval for each time), and the average value was taken as the normal body temperature of rabbits. […] Each group has 6 rabbits, and the test was repeated 3 times for each group. Rabbits were fixed into a fixator. The blank control group was intravenously injected with normal saline of 1 ml/kg via the ear margin; The model control group and each drug group were intravenously injected with typhoid and paratyphoid vaccines of 0.8 ml/kg via the ear margin. After the body temperatures of the rabbits increased by 1° C. or more (requiring about 1˜1.5 h, and this test was limited to 1 h), the blank control group and the model group were administered intragastrically with 0.5% carboxymethycellulose of 1 ml/kg, and the drug groups were administered intragastrically with phillyrin/phillygeninin compositions and paracetamol respectively. The rectal temperature was measured after administration for 30, 60, 90, 120, 180 and 240 min to observe the changes in the body temperature, and difference between the groups was compared by inter-group t test processing through antipyretic percentage.
# [3] = test system: rat fever induced by beer yeast; test: Rat fever induced by beer yeast (Saccharomyces cerevisiae); assay type: in vivo, Wistar rats; settings: 100 mg/kg i.g.
# Procedure: Male Wistar rats with a weight of 180˜200 g were used. Normal anal temperature of each rat was measured twice (at a certain interval) with a WSC-411P portable digital thermometer, and a mean of the two measurement values was taken as a normal body temperature of the rat. Then, 300 rats with body temperature at 36.5˜38° C. were selected and randomly divided into 30 groups by weight: model groups (0.5% methyl cellulose), phillyrin/phillygeninin compositions A and B that are divided into low, medium and high dose groups (2.5, 5, 10 mg/kg) respectively, phillyrin groups (13 mg/kg), phillygeninin groups (13 mg/kg), and positive drug paracetamol groups (100 mg/kg). Each group has 10 rates, and the test is repeated 3 times for each group. 10 mL/kg of 10% fresh Saccharomyces cerevisiae suspension was subcutaneously injected to the back of the rats of each group to induce fever. After administration of 10% fresh Saccharomyces cerevisiae suspension for 6.0 h, the phillyrin/phillygeninin composition and the paracetamol positive drug were administered by intragastric administration, and the same volume of 0.5% methyl cellulose is administrated to the model group by intragastric administration. Rectal temperatures were respectively measured at 1, 2, 3 and 4 h after the administration. Changes in the body temperature were observed and difference between the groups was compared by inter-group t test processing through antipyretic percentage. The above test was repeated totally 3 times.
# [4] = test system: sweat gland epithelial cells of rat paws; test: Sweat secretion of rat paws (histomorphological observation method); assay type: in vivo, Wistar rats; settings: 35.0 mg/kg s.c., 30 min after administration
# From the text: This test is based on a mechanism that when a rat is in an excited state, in addition to the increase of sweat secretion of sweat glands, the morphology of sweat gland epithelial cells changes accordingly. Under an optical microscope, it can be seen that the sweat gland epithelial cell vacuoles increase in number and expand. Under an electron microscope, such expanded vacuoles appear to be mitochondria in the sweat gland epithelial cell swelling, breakage and fusion and expansion of secretory vesicle. Therefore, through histomorphological observation of sweat gland epithelial tissue of a rat paw, secretory activities of the sweat gland can be known.
# 300 Wistar rats with equal male and female number, weighing 120˜160 g were used. These rats were randomly divided into 30 groups by weight and gender: control groups (0.5% of methyl cellulose), phillygeninin groups, phillyrin groups, low, medium and high dose groups (2.5, 5, 10 mg/kg) of phillyrin/phillygeninin compositions A and B separately, and positive drug pilocarpine groups (35 mg/kg). Each group has 10 rats, the test is repeated 3 times for each group. Pilocarpine solution was administered by subcutaneous injection, the remaining groups were subjected to intragastric administration. After administration of the 0.5% of methyl cellulose in the control group for one hour, after administration of the pilocarpine in the positive drug group for 30 min, and after administration of the phillyrin, the phillygeninin and the phillyrin/phillygeninin composition for one hour, the right hind limb was instantly cut off at the ankle joint to immediately take down the footpad of the right hind limb and placed into 10% of formaldehyde solution. The footpads were fixed, dehydrated, embedded, sliced and stained with HE by using conventional methods. Changes in sweat gland epithelial cells of the rat paws from each group were observed under an optical microscope, to mainly observe the percentage of vacuolization. The differences among the various groups was performed through X^2 test for statistical analysis. The above test was repeated 3 times. Percentage of vacuolization=(the number of vacuolized sweat glands)/(the number of sweat glands observed)×100%.
# [5] = test system: sweat secretion of rat paws; test: Sweat secretion of rat paws (coloring method); assay type: in vivo, Wistar rats; settings: 35.0 mg/kg s.c.
# From the text: The test is based on a mechanism that distribution of sweat glands is present in footpads of rat paws, the amount of sweat secretion and variation thereof can be observed by using a mechanism that a purple color can be produced by contacting iodine and starch when encountered with sweat.
# 500 Wistar rats with equal male and female number were used, weighing of 120˜150 g. These rats were randomly divided into 50 groups by weight and gender, i.e., namely 5 groups for the control groups (0.5% methyl cellulose), 5 groups for phillyrin groups, 5 groups for phillygeninin groups, 5 groups for the low, medium and high dose groups (2.5, 5, 10 mg/kg, respectively) of phillyrin/phillygeninin compositions A and B respactively, and 5 groups for the positive drug pilocarpine groups (35 mg/kg). Each group has 10 rats, 10 groups of rates are used for each test, which has 5 time periods (1, 5, 10, 15 and 20 min). The rats were placed into a self-made rat fixation bag, and both hind limbs of the rats were exposed. Dirt on the right paws was gently cleaned away using cotton swabs containing anhydrous alcohol. Pilocarpine solution was administered by subcutaneous injection, the remaining groups were subjected to intragastric administration. At 1 h (30 min for the pilocarpine group) after administration, pre-existing sweat and sweat generated due to struggle on the right paw of each rat in each group was gently wiped away with dry cotton swabs, then the paws were coated with solution A (dissolving 2 g iodine in 100 ml anhydrous alcohol) of Hetian-gaoyuanshi's reagent. After complete dryness, the paws were thinly coated with solution B (uniform mixture of 50 g soluble starch and 100 ml castor oil) of Hetian-gaoyuanshi's reagent. The color and number of dark purple coloring spots (i.e. sweat spots) were carefully observed at 1, 5, 10, 15 and 20 min after the coating of the solution B respectively with magnifying glass. After the test was completed, statistical treatment was performed according to the rank sum test with two-sample comparison, thereby comparing the differences among the various groups.
# [6] = 10 min after coating solution B
# [7] = 15 min after coating solution B
# [8] = 20 min after coating solution B
structure (smiles),measurement,setting,value
CC(=O)Oc1ccccc1C(=O)O [Aspirin],Swelling percentage (%),[1]; 15 min after inflammation induction,8.90 ± 6.70 %
same,Swelling percentage (%),[1]; 30 min after inflammation induction,15.6 ± 12.2 %
same,Swelling percentage (%),[1]; 60 min after inflammation induction,20.3 ± 10.9 %
same,Swelling percentage (%),[1]; 120 min after inflammation induction,21.6 ± 12.1 %
same,Swelling percentage (%),[1]; 180 min after inflammation induction,26.1 ± 21.1 %
same,Swelling percentage (%),[1]; 240 min after inflammation induction,26.1 ± 16.3 %
same,Swelling percentage (%),[1]; 300 min after inflammation induction,34.9 ± 14.6 %
same,Swelling percentage (%),[1]; 360 min after inflammation induction,31.9 ± 12.2 %
CC(=O)Nc1ccc(O)cc1 [Paracetamol],Body temperature,[2]; 30 min after administration,40.53 ± 0.65 °C
same,antipyretic percentage (%),[2]; 30 min after administration,−1.14 ± 0.56%
same,Body temperature,[2]; 60 min after administration,40.10 ± 0.49 °C
same,antipyretic percentage (%),[2]; 60 min after administration,−2.18 ± 0.17%
same,Body temperature,[2]; 90 min after administration,39.83 ± 0.58 °C
same,antipyretic percentage (%),[2]; 90 min after administration,−2.83 ± 0.15%
same,Body temperature,[2]; 120 min after administration,39.72 ± 0.56 °C
same,antipyretic percentage (%),[2]; 120 min after administration,−3.11 ± 0.20%
same,Body temperature,[2]; 180 min after administration,39.61 ± 0.41 °C
same,antipyretic percentage (%),[2]; 180 min after administration,−3.38 ± 0.22%
same,Body temperature,[2]; 240 min after administration,39.53 ± 0.47 °C
same,antipyretic percentage (%),[2]; 240 min after administration,−3.58 ± 0.38%
same,Body temperature,[3]; 1 h after administration,38.66 ± 0.59 °C
same,antipyretic percentage (%),[3]; 1 h after administration,−2.07 ± 0.54 %
same,Body temperature,[3]; 2 h after administration,38.19 ± 0.59 °C
same,antipyretic percentage (%),[3]; 2 h after administration,−3.27 ± 0.77 %
same,Body temperature,[3]; 3 h after administration,37.98 ± 0.19 °C
same,antipyretic percentage (%),[3]; 3 h after administration,−3.80 ± 1.43 %
same,Body temperature,[3]; 4 h after administration,37.84 ± 0.32 °C
same,antipyretic percentage (%),[3]; 4 h after administration,−4.15 ± 1.59 %
CC[C@@H]1C(=O)OC[C@@H]1Cc1cncn1C [Pilocarpine],Number of sweat glands of vacuole,[4],57
same,percentage of vacuolization (%),[4],27.40*** %
same,Animal number of sweat spots of level +,[5]; 1 min after coating solution B,1 rats
same,Animal number of sweat spots of level ++,[5]; 1 min after coating solution B,3 rats
same,Animal number of sweat spots of level +++,[5]; 1 min after coating solution B,1 rats
same,Animal number of sweat spots of level ++++,[5]; 1 min after coating solution B,5 rats
same,Animal number of sweat spots of level −,[5]; 1 min after coating solution B,0 rats
same,Animal number of sweat spots of level +,[5]; 5 min after coating solution B,1 rats
same,Animal number of sweat spots of level ++,[5]; 5 min after coating solution B,2 rats
same,Animal number of sweat spots of level +++,[5]; 5 min after coating solution B,1 rats
same,Animal number of sweat spots of level ++++,[5]; 5 min after coating solution B,6 rats
same,Animal number of sweat spots of level −,[5]; 5 min after coating solution B,0 rats
same,Animal number of sweat spots of level +,[5]; [6],0 rats
same,Animal number of sweat spots of level ++,[5]; [6],2 rats
same,Animal number of sweat spots of level +++,[5]; [6],1 rats
same,Animal number of sweat spots of level ++++,[5]; [6],6 rats
same,Animal number of sweat spots of level −,[5]; [6],0 rats
same,Animal number of sweat spots of level +,[5]; [7],0 rats
same,Animal number of sweat spots of level ++,[5]; [7],2 rats
same,Animal number of sweat spots of level +++,[5]; [7],1 rats
same,Animal number of sweat spots of level ++++,[5]; [7],6 rats
same,Animal number of sweat spots of level −,[5]; [7],0 rats
same,Animal number of sweat spots of level +,[5]; [8],0 rats
same,Animal number of sweat spots of level ++,[5]; [8],2 rats
same,Animal number of sweat spots of level +++,[5]; [8],1 rats
same,Animal number of sweat spots of level ++++,[5]; [8],6 rats
same,Animal number of sweat spots of level −,[5]; [8],0 rats
